In ChEMBL document CHEMBL3045472, “Synthesis and evaluation of some novel methylene-bridged aryl semicarbazones as potential anticonvulsant agents” (Med Chem Res, 2012):

Experiments:
Mus musculus [1] = experiment: Anticonvulsant activity in Mus musculus albino (mouse) assessed as decrease in pentylenetetrazole-induced total seizure time at 300 mg/kg, ip administered 30 min followed by pentylenetetrazole induction measured for 30 min (reference value: 9.9 +/- 1.3 secs); format: functional; settings: route intraperitoneal
Mus musculus [2] = experiment: Anticonvulsant activity in Mus musculus albino (mouse) assessed as decrease in pentylenetetrazole-induced total seizure time at 100 mg/kg, ip administered 30 min followed by pentylenetetrazole induction measured for 30 min (reference value: 9.9 +/- 1.3 secs); format: functional; settings: route intraperitoneal
Mus musculus [3] = experiment: Anticonvulsant activity in pentylenetetrazole-induced Mus musculus albino (mouse) seizure model assessed as death time at 100 mg/kg, ip administered 30 min followed by pentylenetetrazole induction measured for 30 min (reference value: 416 +/- 58.2 secs); format: functional; settings: route intraperitoneal
Mus musculus [4] = experiment: Anticonvulsant activity in Mus musculus albino (mouse) assessed as increase in onset of pentylenetetrazole-induced seizure at 300 mg/kg, ip administered 30 min followed by pentylenetetrazole induction measured for 30 min (reference value: 184 +/- 32 secs); format: functional; settings: route intraperitoneal
Mus musculus [5] = experiment: Anticonvulsant activity in Mus musculus albino (mouse) assessed as protection against pentylenetetrazole-induced seizure at 100 mg/kg, ip administered 30 min followed by pentylenetetrazole induction measured for 30 min relative to control; format: functional; settings: route intraperitoneal
Mus musculus [6] = experiment: Anticonvulsant activity in pentylenetetrazole-induced Mus musculus albino (mouse) seizure model assessed as death time at 300 mg/kg, ip administered 30 min followed by pentylenetetrazole induction measured for 30 min (reference value: 416 +/- 58.2 secs); format: functional; settings: route intraperitoneal
Mus musculus [7] = experiment: Anticonvulsant activity in pentylenetetrazole-induced Mus musculus albino (mouse) seizure model assessed as survival at 100 mg/kg, ip administered 30 min followed by pentylenetetrazole induction measured for 30 min relative to control; format: functional; settings: 0.5 h, route intraperitoneal
Mus musculus [8] = experiment: Anticonvulsant activity in Mus musculus albino (mouse) assessed as increase in onset of pentylenetetrazole-induced seizure at 100 mg/kg, ip administered 30 min followed by pentylenetetrazole induction measured for 30 min (reference value: 184 +/- 32 secs); format: functional; settings: route intraperitoneal
Mus musculus [9] = experiment: Anticonvulsant activity in Mus musculus albino (mouse) assessed as protection against pentylenetetrazole-induced seizure at 300 mg/kg, ip administered 30 min followed by pentylenetetrazole induction measured for 30 min relative to control; format: functional; settings: route intraperitoneal
Mus musculus [10] = experiment: Anticonvulsant activity in pentylenetetrazole-induced Mus musculus albino (mouse) seizure model assessed as survival at 300 mg/kg, ip administered 30 min followed by pentylenetetrazole induction measured for 30 min relative to control; format: functional; settings: 0.5 h, route intraperitoneal
Mus musculus [11] = experiment: Anticonvulsant activity in Mus musculus albino (mouse) assessed as decrease in pentylenetetrazole-induced total seizure time at 50 mg/kg, ip administered 30 min followed by pentylenetetrazole induction measured for 30 min (reference value: 9.9 +/- 1.3 secs); format: functional; settings: route intraperitoneal
Mus musculus [12] = experiment: Anticonvulsant activity in pentylenetetrazole-induced Mus musculus albino (mouse) seizure model assessed as survival at 50 mg/kg, ip administered 30 min followed by pentylenetetrazole induction measured for 30 min relative to control; format: functional; settings: 0.5 h, route intraperitoneal
Mus musculus [13] = experiment: Anticonvulsant activity in Mus musculus albino (mouse) assessed as increase in onset of pentylenetetrazole-induced seizure at 50 mg/kg, ip administered 30 min followed by pentylenetetrazole induction measured for 30 min (reference value: 184 +/- 32 secs); format: functional; settings: route intraperitoneal
Mus musculus [14] = experiment: Anticonvulsant activity in Mus musculus albino (mouse) assessed as protection against pentylenetetrazole-induced seizure at 50 mg/kg, ip administered 30 min followed by pentylenetetrazole induction measured for 30 min relative to control; format: functional; settings: route intraperitoneal
Mus musculus [15] = experiment: Neurotoxicity in Mus musculus albino (mouse) assessed as minimal motor impairment at 300 mg/kg, ip measured for 180 secs by rotorod test; format: toxicity, organism-based; design: dose 300 mg/kg, route intraperitoneal; settings: in vivo, 0.05 h
Mus musculus [16] = experiment: Anticonvulsant activity in pentylenetetrazole-induced Mus musculus albino (mouse) seizure model assessed as death time at 50 mg/kg, ip administered 30 min followed by pentylenetetrazole induction measured for 30 min (reference value: 416 +/- 58.2 secs); format: functional; settings: route intraperitoneal
Mus musculus [17] = experiment: Anticonvulsant activity in pentylenetetrazole-induced Mus musculus albino (mouse) seizure model assessed as death time at 15 mg/kg, ip administered 30 min followed by pentylenetetrazole induction measured for 30 min (reference value: 416 +/- 58.2 secs); format: functional; settings: route intraperitoneal
Mus musculus [18] = experiment: Anticonvulsant activity in Mus musculus albino (mouse) assessed as decrease in pentylenetetrazole-induced total seizure time at 15 mg/kg, ip administered 30 min followed by pentylenetetrazole induction measured for 30 min (reference value: 9.9 +/- 1.3 secs); format: functional; settings: route intraperitoneal
Mus musculus [19] = experiment: Anticonvulsant activity in Mus musculus albino (mouse) assessed as protection against pentylenetetrazole-induced seizure at 15 mg/kg, ip administered 30 min followed by pentylenetetrazole induction measured for 30 min relative to control; format: functional; settings: route intraperitoneal
Mus musculus [20] = experiment: Anticonvulsant activity in pentylenetetrazole-induced Mus musculus albino (mouse) seizure model assessed as survival at 15 mg/kg, ip administered 30 min followed by pentylenetetrazole induction measured for 30 min relative to control; format: functional; settings: 0.5 h, route intraperitoneal
Mus musculus [21] = experiment: Anticonvulsant activity in Mus musculus albino (mouse) assessed as increase in onset of pentylenetetrazole-induced seizure at 15 mg/kg, ip administered 30 min followed by pentylenetetrazole induction measured for 30 min (reference value: 184 +/- 32 secs); format: functional; settings: route intraperitoneal
Mus musculus [22] = experiment: Neurotoxicity in Mus musculus albino (mouse) assessed as minimal motor impairment at 15 mg/kg, ip measured for 180 secs by rotorod test; format: toxicity, organism-based; design: dose 15 mg/kg, route intraperitoneal; settings: in vivo, 0.05 h
Mus musculus [23] = experiment: Anticonvulsant activity in Mus musculus albino (mouse) assessed as increase in onset of pentylenetetrazole-induced seizure at 220 mg/kg, ip administered 30 min followed by pentylenetetrazole induction measured for 30 min (reference value: 184 +/- 32 secs); format: functional; settings: route intraperitoneal
Mus musculus [24] = experiment: Anticonvulsant activity in pentylenetetrazole-induced Mus musculus albino (mouse) seizure model assessed as death time at 220 mg/kg, ip administered 30 min followed by pentylenetetrazole induction measured for 30 min (reference value: 416 +/- 58.2 secs); format: functional; settings: route intraperitoneal
Mus musculus [25] = experiment: Anticonvulsant activity in Mus musculus albino (mouse) assessed as protection against pentylenetetrazole-induced seizure at 220 mg/kg, ip administered 30 min followed by pentylenetetrazole induction measured for 30 min relative to control; format: functional; settings: route intraperitoneal
Mus musculus [26] = experiment: Neurotoxicity in Mus musculus albino (mouse) assessed as minimal motor impairment at 220 mg/kg, ip measured for 180 secs by rotorod test; format: toxicity, organism-based; design: dose 220 mg/kg, route intraperitoneal; settings: in vivo, 0.05 h
Mus musculus [27] = experiment: Anticonvulsant activity in pentylenetetrazole-induced Mus musculus albino (mouse) seizure model assessed as survival at 220 mg/kg, ip administered 30 min followed by pentylenetetrazole induction measured for 30 min relative to control; format: functional; settings: 0.5 h, route intraperitoneal
Mus musculus [28] = experiment: Anticonvulsant activity in Mus musculus albino (mouse) assessed as decrease in pentylenetetrazole-induced total seizure time at 220 mg/kg, ip administered 30 min followed by pentylenetetrazole induction measured for 30 min (reference value: 9.9 +/- 1.3 secs); format: functional; settings: route intraperitoneal

SMILES | Time (Mus musculus [1]) [s] | Time (Mus musculus [2]) [s] | Time (Mus musculus [3]) [s] | Time (Mus musculus [4]) [s] | Activity (Mus musculus [5]) [%] | Time (Mus musculus [6]) [s] | survival at 100 mg/kg (Mus musculus [7]) [%] | Time (Mus musculus [8]) [s] | Activity (Mus musculus [9]) [%] | survival at 300 mg/kg (Mus musculus [10]) [%] | also measured
CC(C)=NNC(=O)CNc1ccc(Br)cc1 | 3.3 | 10 | 945 | 1098 | 0 | 1428 | 25 | 224 | 45 | 64 | 
CCOc1ccc(NCC(=O)N/N=C/c2ccc([N+](=O)[O-])cc2)cc1 | 5.2 | 5.3 | 1137 | 885 | 16 | 1286 | 50 | 603 | 22 | 44 | Time (Mus musculus [11]): 7.3 s; survival at 50 mg/kg (Mus musculus [12]): 67%; Time (Mus musculus [13]): 643 s; Activity (Mus musculus [14]): 16%; Activity (Mus musculus [15]): Toxic; Time (Mus musculus [16]): 1528 s
O=C(CNc1ccc(Br)cc1)N/N=C/c1ccccc1Cl | 4.5 | 6.4 | 885 | 514 | 0 | 781 | 25 | 403 | 14 | 29 | 
O=C(CNc1ccc(Br)cc1)N/N=C/c1ccccc1O | 6.6 | 7.7 | 1800 | 884 | 25 | 1800 | 100 | 724 | 38 | 100 | Time (Mus musculus [11]): 8.6 s; survival at 50 mg/kg (Mus musculus [12]): 25%; Time (Mus musculus [13]): 562 s; Activity (Mus musculus [14]): 25%; Time (Mus musculus [16]): 832 s
CCOc1ccc(NCC(=O)N/N=C/c2ccccc2Cl)cc1 | 9.3 | 8.5 | 1189 | 590 | 14 | 651 | 43 | 436 | 0 | 12 | 
C/C(=N\NC(=O)CNc1ccc(Br)cc1)c1ccccc1 | 3.1 | 11 | 1577 | 915 | 14 | 1161 | 86 | 498 | 38 | 50 | 
O=C(CNc1ccc(Br)cc1)N/N=C/c1ccccc1[N+](=O)[O-] | 2.8 | 11 | 897 | 1073 | 0 | 1265 | 38 | 144 | 33 | 33 | 
CCOc1ccc(NCC(=O)N/N=C/c2ccccc2O)cc1 | 6.4 | 11 | 659 | 616 | 0 | 896 | 12 | 275 | 0 | 0 | Time (Mus musculus [11]): 5.2 s; survival at 50 mg/kg (Mus musculus [12]): 33%; Time (Mus musculus [13]): 903 s; Activity (Mus musculus [14]): 22%; Time (Mus musculus [16]): 1055 s
CCC1(c2ccccc2)C(=O)NC(=O)NC1=O [PHENOBARBITAL] |  |  |  |  |  |  |  |  |  |  | Time (Mus musculus [17]): 1800 s; Time (Mus musculus [18]): 2.2 s; Activity (Mus musculus [19]): 50%; survival at 15 mg/kg (Mus musculus [20]): 100%; Time (Mus musculus [21]): 1088 s; Activity (Mus musculus [22]): Non-toxic
CCOc1ccc(NCC(=O)N/N=C/c2ccccc2[N+](=O)[O-])cc1 | 6.8 | 8.7 | 1011 | 626 | 0 | 734 | 12 | 275 | 14 | 14 | 
CCOc1ccc(NCC(=O)NN=C(C)C)cc1 | 4.2 | 4.9 | 623 | 425 | 0 | 606 | 0 | 373 | 0 | 0 | 
CCOc1ccc(NCC(=O)N/N=C(/C)c2ccccc2)cc1 | 5.8 | 5.9 | 310 | 414 | 0 | 483 | 0 | 243 | 0 | 0 | 
O=C(CNc1ccc(Br)cc1)N/N=C/c1ccc([N+](=O)[O-])cc1 | 3.8 | 6.1 | 1400 | 809 | 0 | 1456 | 62 | 640 | 38 | 62 | Time (Mus musculus [11]): 3.7 s; survival at 50 mg/kg (Mus musculus [12]): 50%; Time (Mus musculus [13]): 596 s; Activity (Mus musculus [14]): 16%; Time (Mus musculus [16]): 1122 s
CCCC(CCC)C(=O)[O-].[Na+] [VALPROATE SODIUM] |  |  |  |  |  |  |  |  |  |  | Time (Mus musculus [23]): 1207 s; Time (Mus musculus [24]): 1800 s; Activity (Mus musculus [25]): 50%; Activity (Mus musculus [26]): Non-toxic; survival at 220 mg/kg (Mus musculus [27]): 100%; Time (Mus musculus [28]): 2.3 s
